Test results as given in US5474984A, “Horseshoe crab amebocyte lysate factor G activation inhibitor” (priority 1988, dated 1995).

Columns and labels:
factor G fraction of LAL = target: T1, factor G fraction of LAL (Tachypleus tridentatus, UniProt Q27082); assay: Method of measuring the titer of the activity of a factor G activation inhibitor (GI); assay type: biochemical, T. tridentatus; settings: 10 pg factor G activating substance (sample No. 106), 37° C. 30 minutes; 100% inhibition = 100 units
T1 construct: Prepared from horseshoe crab, T. tridentatus; from tissue; host or cells: horseshoe crab amebocyte lysate (LAL), factor G fraction
T1 sequence (Q27082 20-673): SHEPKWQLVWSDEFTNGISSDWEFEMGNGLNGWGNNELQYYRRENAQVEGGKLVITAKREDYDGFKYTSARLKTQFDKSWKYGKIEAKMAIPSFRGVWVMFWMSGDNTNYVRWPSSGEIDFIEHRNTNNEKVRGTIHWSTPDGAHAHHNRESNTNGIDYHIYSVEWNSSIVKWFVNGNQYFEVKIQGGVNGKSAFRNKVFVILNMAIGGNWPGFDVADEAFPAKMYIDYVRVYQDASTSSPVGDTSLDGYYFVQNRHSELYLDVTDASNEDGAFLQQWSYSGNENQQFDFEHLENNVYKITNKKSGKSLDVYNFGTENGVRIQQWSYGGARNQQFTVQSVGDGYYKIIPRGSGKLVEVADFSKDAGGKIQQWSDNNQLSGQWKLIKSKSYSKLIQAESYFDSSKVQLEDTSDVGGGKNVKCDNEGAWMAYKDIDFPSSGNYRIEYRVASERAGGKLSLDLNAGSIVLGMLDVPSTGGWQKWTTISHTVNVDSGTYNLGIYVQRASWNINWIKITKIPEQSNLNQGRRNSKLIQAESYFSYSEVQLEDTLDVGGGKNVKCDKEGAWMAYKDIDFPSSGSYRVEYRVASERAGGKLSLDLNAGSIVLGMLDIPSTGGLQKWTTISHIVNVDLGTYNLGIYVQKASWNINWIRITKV
T1 sequence (Q27083 32-309 partner): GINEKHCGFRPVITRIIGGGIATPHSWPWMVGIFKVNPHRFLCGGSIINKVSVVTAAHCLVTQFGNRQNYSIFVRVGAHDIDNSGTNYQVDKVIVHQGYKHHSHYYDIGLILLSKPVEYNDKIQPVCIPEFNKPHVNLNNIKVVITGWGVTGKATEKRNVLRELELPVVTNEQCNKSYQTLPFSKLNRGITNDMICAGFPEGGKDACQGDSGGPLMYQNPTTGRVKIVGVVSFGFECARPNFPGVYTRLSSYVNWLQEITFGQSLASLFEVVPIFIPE
Experimental: The factor G activation inhibiting titer was measured by the "method of measuring the titer of the activity of a factor G activation inhibitor" described below and expressed in units/mg.
Method of measuring the titer of the activity of a factor G activation inhibitor (sometimes abbreviated as GI):
Two hundred microliters of the reaction mixture contained the following materials. […]
The above reaction mixture was incubated at 37° C. for 30 minutes, and 0.5 ml each of 0.04% sodium nitrite (0.48M HCl solution), 0.3% ammonium sulfamate, and 0.07% N-(1-naphthyl)ethylenediamine dihydrochloride were successively added, and its color was changed by diazo coupling. The amount of pNA liberated was measured as the absorbance at 545 nm (A545).
The GI activity was calculated from the following equation. [formula]
The amount of GI which inhibited activation of factor G by GA under these conditions to an extent of 100% is defined as 100 units.
A sample which is water-insoluble is used after it is dissolved in 0.3M NaOH, and neutralized with an equal volume of 0.3M HCl.
A GPC fractionated pure sample of the sonicated product of Curdlan which was prepared in Preparation Example 5 (Table 2, sample No. 106 having a molecular weight of 216,000).
Prepared from horseshoe crab, T. tridentatus, inhabiting the coast of Japan in accordance with the method described in T. Obayashi et al., Clin. Chim. Acta, 149, 55-65 (1985).

factor G [1] = assay: Operating mechanism experiment: inhibition of the factor G pathway with varied sequence of addition; assay type: biochemical, horseshoe crab; settings: factor G activated by A before inhibitor
Source text: (§1) A reaction mixture of the following composition was used. Two hundred microliters of the reaction mixture contained 5 micrograms of a factor G activation inhibitor (laminariheptaose; sample No. 10; abbreviated as I), 3 pg of a factor G activating substance (GPC fraction of sonicated Curdlan; sample No. 106; abbreviated as A), 20 microliters of a factor G fraction (abbreviated as G) and 30 microliters of a proclotting enzyme fraction (abbreviated as P) prepared from LAL by the method described in T. Obayashi et al., Clin. Chim. Acta, 149, 55-65 (1985), 20 μmoles of Tris-HCl buffer (pH 8.0), 20 μmoles of MgCl2 and 0.13 μmole of a chromogenic substrate Boc-Leu-Gly-Arg-pNA (abbreviated as S).
(§2) In each of Runs 1 to 5, the sequence of adding the ingredients and the incubating conditions were varied, and the degree of inhibition of the factor G pathway was measured and determined in comparison with a control in which no inhibitor was added.

factor G [2] = target: T2, factor G (Tachypleus tridentatus, UniProt Q27082); assay: as above; assay type: biochemical, horseshoe crab; settings: 5 micrograms inhibitor
T2 construct: prepared from LAL by the method described in T. Obayashi et al; from tissue; host or cells: horseshoe crab amebocyte lysate (LAL), factor G fraction
T2 sequence (Q27082 20-673): T1 sequence (Q27082 20-673)
T2 sequence (Q27083 32-309 partner): T1 sequence (Q27083 32-309 partner)
Source text: as §1, §2

| SMILES | Factor G activation inhibiting titer (factor G fraction of LAL) | other results |
| --- | --- | --- |
| OC[C@H]1O[C@@H](O[C@@H]2[C@@H](O)[C@H](O[C@@H]3[C@@H](O)[C@H](O[C@@H]4[C@@H](O)[C@H](O[C@H]5[C@H](O)[C@@H](CO)OC(O)[C@@H]5O)O[C@H](CO)[C@H]4O)O[C@H](CO)[C@H]3O)O[C@H](CO)[C@H]2O)[C@H](O)[C@@H](O)[C@@H]1O (stereo partly drawn) [compound 8, Laminaripentaose] | 39,800 units/mg | – |
| OC[C@H]1O[C@@H](O[C@@H]2[C@@H](O)[C@H](O[C@@H]3[C@@H](O)[C@H](O[C@@H]4[C@@H](O)[C@H](O[C@@H]5[C@@H](O)[C@H](O[C@H]6[C@H](O)[C@@H](CO)OC(O)[C@@H]6O)O[C@H](CO)[C@H]5O)O[C@H](CO)[C@H]4O)O[C@H](CO)[C@H]3O)O[C@H](CO)[C@H]2O)[C@H](O)[C@@H](O)[C@@H]1O (stereo partly drawn) [compound 9, Laminarihexaose] | 55,000 units/mg | – |
| OCC1OC(OC2C(O)C(CO)OC(OC3C(O)C(CO)OC(OC4C(O)C(CO)OC(OC5C(O)C(CO)OC(OC6C(O)C(CO)OC(OC7C(O)C(O)OC(CO)C7O)C6O)C5O)C4O)C3O)C2O)C(O)C(O)C1O (stereo not drawn) [compound 10, Laminariheptaose] | 103,000 units/mg | Inhibition rate (%) to the control (factor G [1]; Run 4 (sequence drawing 14)): 1.7%; Inhibition rate (%) to the control (factor G [1]; Run 5 (sequence drawing 15)): 0%; Inhibition rate (%) to the control (factor G [2]; Run 1 (sequence of addition drawing 11), 3 pg activating substance sample No. 106): 100%; Inhibition rate (%) to the control (factor G [2]; Run 2 (sequence drawing 12), 3 pg activating substance): 100%; Inhibition rate (%) to the control (factor G [2]; Run 3 (sequence drawing 13), 3 pg activating substance): 100% |
| OC[C@H]1OC(O)[C@H](O)[C@@H](O)[C@@H]1O (stereo partly drawn) [compound 108, Glucose, reference compound] | < 100 units/mg | – |

Second part, led by results:

| Factor G activation inhibiting titer (factor G fraction of LAL) | SMILES | other results |
| --- | --- | --- |
| 214 units/mg | OC[C@H]1O[C@@H](O[C@H]2[C@H](O)[C@@H](CO)OC(O)[C@@H]2O)[C@H](O)[C@@H](O)[C@@H]1O (stereo partly drawn) [compound 5, Laminasiribose] | – |
| 4,670 units/mg | OC[C@H]1O[C@@H](O[C@@H]2[C@@H](O)[C@H](O[C@H]3[C@H](O)[C@@H](CO)OC(O)[C@@H]3O)O[C@H](CO)[C@H]2O)[C@H](O)[C@@H](O)[C@@H]1O (stereo partly drawn) [compound 6, Laminaritriose] | – |
| 20,000 units/mg | OC[C@H]1O[C@@H](O[C@@H]2[C@@H](O)[C@H](O[C@@H]3[C@@H](O)[C@H](O[C@H]4[C@H](O)[C@@H](CO)OC(O)[C@@H]4O)O[C@H](CO)[C@H]3O)O[C@H](CO)[C@H]2O)[C@H](O)[C@@H](O)[C@@H]1O (stereo partly drawn) [compound 7, Laminaritetraose] | – |
